Earlier results in US20220184026A1, “COMPOSITIONS OF FULVIC ACID AND CANNABINOID AND USES THEREOF” (Omni Bioceutical Innovations, Inc., priority 2019, published 2022).
Read-outs that look alike come from different tables or passages of the source.

Test system: chronic wounds
Design: key: N.S. = not statistically significant

In the case of basic fibroblast growth factor [bFGF], the Results (Richard et al., diabetic wounds (n=17), 0.25 to 0.75 μg/cm^2 daily) is listed as “N.S” and the Results (Robson et al., pressure wounds (n=50), 1, 5, and 10 μg/cm^2) is listed as “N.S”.
For “epidermal growth factor (NSDSECPLSHDGYCLHDGVCMYIEALDKYACNCVVGYIGERCQYRDLKWWELR; not fully specified; Epidermal growth factor; UniProt P01133 971-1023, looked up) [EGF]”, the Results (Falanga et al., venous wounds (n=44), 10 μg/mL twice per day) is given as “N.S”.
For “granulocyte-macrophage colony-stimulating factor [GM-CSF]”, the Results (da Costa et al., venous + arterial wounds (n=25), 400 μg injected once around the wound) is given as “N.S”.
In the case of human growth hormone [HGH], the Results (Rasmussen et al., venous wounds (n=37), 1 IU/cm^2 per week) is listed as “N.S”.
In the case of interleukin-1B [IL-1B], the Results (Robson et al., pressure wounds (n=25), 0.01, 0.1, and 1 μg/cm^2 daily) is listed as “N.S”.
